From a melting point compilation (Tetko et al.; mined from patent text by program, amines drawn as free bases though some values may be those of a salt)

First: CC1(C)OC2C(Br)=CC(CC(N)=O)C(Br)C2O1 (stereo not drawn)
Second: CNC(=O)C(CCO)C1(C)OCCc2c1[nH]c1ccccc21 (stereo not drawn)
The melting point of the first is higher: 181 °C for the first, 169 to 171 °C for the second.

First: COCCOc1cc(C)c(O)c2ccccc12
Second: COc1cc(C)cc(OC)c1C(=O)c1ccccc1N(C)C(=O)CBr
The melting point of the first is lower: 100 to 101 °C for the first, 121 °C for the second.

`c1ccc(NC2CCc3ccccc3C2)cc1` (stereo not drawn) and `O=C(O)C1(c2ccccc2)Cc2ccccc2C1` cannot be ordered by melting point: 193 to 196 °C for the first, 193 to 195 °C for the second.

First: Cc1ccccc1C(=NC(=Nc1ccccc1)C1(C)CCCCC1)Nc1ccc(F)cc1
Second: O=C(Nc1ccc(F)cc1F)NC1(c2cccs2)CCCCC1
The melting point of the first is higher: 210 to 211 °C for the first, 175 to 177 °C for the second.

First: CCCCCCCCCCCCCCCCCCN(CCCCCCCCCCCCCCCCCC)c1ccc(C=Cc2ccc(S(C)(=O)=O)cc2)cc1
Second: Cc1cc(F)ccc1N(C)C(=O)c1cccc(S(=O)(=O)N(C)c2ccc(Br)cc2)c1
The melting point of the first is lower: 75 to 76 °C for the first, 104 to 105 °C for the second.

First: Nc1ccc(-c2cc3c(Nc4ccc(Cl)cc4F)ncnc3o2)cc1
Second: NC(=O)c1coc(-c2ccc(Oc3ccc(F)cc3)cc2)n1
The melting point of the first is higher: 229 to 232 °C for the first, 164 °C for the second.

First: Oc1ccc2c(c1)CCCC(c1ccccc1)=C2c1ccc(OCCCCCSCc2ccccn2)cc1
Second: Cn1c2c(c3ccccc3c1=O)C(=O)c1cc(OCc3ccccc3)c(OCc3ccccc3)cc1-2
The melting point of the first is lower: 159 °C for the first, 198 to 200 °C for the second.

Compared with `CCCN1CCCC(NC(=O)C(Cc2ccc(OCc3ccccc3)cc2)NC(=O)C(CC(C)C)N(C)Cc2ccc(N(C)C)cc2)C1` (stereo not drawn), `CN(C)C1CCc2[nH]c3cc(OCc4ccccc4)ccc3c2C1` (stereo not drawn) is higher in melting point: 131 to 133 °C for the first, 237 to 239 °C for the second.

First: COc1ccc2c(c1OC)CCC(NC(=O)C(F)(F)F)C2=O (stereo not drawn)
Second: COC(=O)C1=CON2CCC34C=CC(O)CC3Oc3c(OC)ccc(c34)C12 (stereo not drawn)
The melting point of the first is higher: 166 to 167 °C for the first, 151 to 154 °C for the second.

First: Cc1csc2nc(C(=O)NCc3cccc(CNC(=O)c4nc[nH]n4)c3)[nH]c(=O)c12
Second: O=C(CCN1CCOCC1)NCc1ccc2c(c1)Cc1c(-c3ccsc3)n[nH]c1-2
The melting point of the first is higher: 290 to 291 °C for the first, 205 to 207 °C for the second.

Compared with `Cc1cc(O)c2c(C)nn(-c3ccccn3)c2n1`, `Cc1cccc(-c2cc(O)c(Sc3ccccc3C(C)C)c(=O)o2)c1` is lower in melting point: 175 to 176 °C for the first, 161 to 162 °C for the second.

First: CCc1ccc(C(=O)O)c(O)n1
Second: O=C(O)c1c(Cl)cc(Cl)nc1Cl
The melting point of the first is higher: 190 to 193 °C for the first, 138 to 141 °C for the second.

Compared with `N=C(NO)c1ccc(-c2ccc([N+](=O)[O-])c(C(F)(F)F)c2)o1`, `O=C(c1ccccc1)c1cc([N+](=O)[O-])ccc1O` is lower in melting point: 221 °C for the first, 125 to 126 °C for the second.

First: CN(Cc1cccc2c1CN(C1CCC(=O)NC1=O)C2=O)C(=O)Nc1cccc2ccccc12 (stereo not drawn)
Second: CCN1C(=O)C(C)(C)C(=O)N(C)c2cc(CN(CCn3ccc4oc(C)cc4c3=O)Cc3ccccc3CO)ccc21
The melting point of the first is higher: 292 to 294 °C for the first, 159 to 161 °C for the second.

Compared with `NC(=S)c1nccn1Cc1cccs1`, `O=C(CCc1nnc(-c2ccc3c(c2)CCO3)o1)c1cccs1` is lower in melting point: 152 to 153 °C for the first, 151 to 152 °C for the second.

Compared with `Cc1c(C)c2c(c(C)c1C=O)CC(C)(C)C2`, `Cc1c(C)c(NC(=O)CC(C)(C)C)c2c(c1C)C(O)(c1ccc(C(C)C)cc1)C(C)(C)O2` (stereo not drawn) is higher in melting point: 61 to 62 °C for the first, 178 to 179 °C for the second.

Compared with `CC(C)[Si](O[C@@H](CO)[C@H](CC1CCCCC1)NC(=O)OC(C)(C)C)(C(C)C)C(C)C`, `CC(O)C(NC(=O)OCc1ccccc1)C(=O)NN` (stereo not drawn) is higher in melting point: 61 to 63 °C for the first, 135 °C for the second.

First: CC(C)CNC1=NS(=O)(=O)c2ccc(Cl)cc2N1
Second: CC(C)Cc1ccc(COc2ccc(CC(=O)O)cc2Cl)cc1
The melting point of the first is higher: 298 to 301 °C for the first, 97 to 99 °C for the second.

Compared with `COc1ccc(-n2nc(OCC(F)(F)F)nc2-c2ccc(OC)nc2)cc1`, `O=c1c(Br)cn(-c2cccc(C(F)(F)F)c2)nc1-c1ccnn1-c1ccccc1` is higher in melting point: 82 to 83 °C for the first, 145 to 146 °C for the second.

`O=C(O)COc1c(Br)cc(C(=O)c2ccc3ccccc3c2)cc1Br` and `CCC1(c2ccccc2)Cc2cc(OCC(=O)O)c(Cl)c(Cl)c2C1=O` (stereo not drawn) cannot be ordered by melting point: 188 to 189 °C for the first, 187 to 189 °C for the second.

Compared with `CC1(C)CC(=O)C1(Br)CC(Cl)(Cl)Cl` (stereo not drawn), `CN1C(=N)N(c2ccccc2)CC1=O` is higher in melting point: 46 to 49 °C for the first, 169 to 170 °C for the second.

First: Cc1sc2c(c1CCN1CCC(c3noc4cc(F)ccc34)CC1)CCN(C)C2
Second: COc1ccc(N2CCOCC2)c2sc(-c3nc4c([nH]3)CCN(C(C)=O)CC4)nc12
The melting point of the first is lower: 100 to 103 °C for the first, 195 to 197 °C for the second.

First: NCc1ccc2[nH]ccc2c1
Second: CNC(=O)[C@@H](N)Cc1ccc(OC)cc1
The melting point of the first is higher: 114 to 115 °C for the first, 90 to 91 °C for the second.

First: O=[N+]([O-])c1ccc(I)c(-c2cc([N+](=O)[O-])ccc2I)c1
Second: Cc1cccc(-c2ccc(O)cc2C=O)c1
The melting point of the first is higher: 230 to 232 °C for the first, 148 to 150 °C for the second.

First: Oc1ccc2cc(COC=C3C4CC5CC(C4)CC3C5)ccc2c1
Second: O=C(OCc1ccccc1)c1ccc(Br)c(OCc2ccccc2)c1
The melting point of the first is higher: 133 to 140 °C for the first, 80.5 to 81.5 °C for the second.

Compared with `O=C(N[C@H](Cc1ccc(Cl)c(OC(F)(F)C(F)F)c1)[C@@H](O)c1ccc(F)cc1)c1ccc(F)c2ccccc12` (racemic), `N#CC(c1ccc(Cl)cc1)N(Cc1ccccc1)C(=O)C(F)(F)F` (stereo not drawn) is lower in melting point: 206 to 207 °C for the first, 131 to 132 °C for the second.

First: Nc1cccc(Oc2ccc(C(c3ccc(Oc4cccc(N)c4)cc3)(C(F)(F)F)C(F)(F)F)cc2)c1
Second: Cc1ccc(S(=O)(=O)n2ccnc2C(O)(c2ccccc2)c2ccc(Cl)cc2)cc1 (stereo not drawn)
The melting point of the first is higher: 137 to 139 °C for the first, 116 to 118 °C for the second.

Compared with `CCC(CC)Nc1cc(C)nc2c1CCC(=O)N2c1c(C)cc(C)cc1C`, `CCC(=S)N(c1c(C)cccc1C)C(C)C(C)=S` (stereo not drawn) is lower in melting point: 124 to 126 °C for the first, 88 to 92 °C for the second.

Compared with `CC1(C)Oc2ccc(C#N)cc2C(C2=C(C(O)C(N)=O)C=CCC2)=C1O` (stereo not drawn), `CC(=O)NC1=C(N)C(=O)c2ccccc2C1=O` is lower in melting point: 235 to 237 °C for the first, 233 to 234 °C for the second.

Compared with `Fc1ccc2c(c1F)C(C#CC1CC1)(C(F)(F)F)NC(=S)N2` (racemic), `O=C1O[C@@H](CO)CN1c1ccc(-n2ccnn2)c(F)c1` is lower in melting point: 241 to 243 °C for the first, 179 to 180 °C for the second.

First: CCC1(CO)COCOC1
Second: CC(=O)Oc1ccc(C#C[Si](C)(C)C)cc1
The melting point of the first is higher: 95 to 102 °C for the first, 45 °C for the second.

Compared with `OCc1cc2cc(Cl)cc(Br)c2o1`, `ClC1=Nc2ccccc2Oc2c1csc2Cl` is higher in melting point: 123 to 126 °C for the first, 144 to 145 °C for the second.

First: N#CNC(=NCCO[N+](=O)[O-])c1cncc(N)c1
Second: CC(C)(C)C(NC(=O)c1ccc(Br)cc1)NC(=NC#N)Nc1cccnc1 (stereo not drawn)
The melting point of the first is lower: 121 °C for the first, 180 to 181 °C for the second.

First: Cc1nnc(-c2ccc3occ(-c4ccc(S(=O)Cc5ccccc5)cc4)c3c2)o1 (stereo not drawn)
Second: CCCCc1nc2c(C(N)=O)cccc2n1Cc1ccc(-c2ccccc2-c2nnn[nH]2)cc1
The melting point of the first is lower: 183 to 184 °C for the first, 235 to 236 °C for the second.

First: COc1ccc(C(=O)Nc2ccccc2)cc1NCc1ccc(C#N)cc1
Second: N#CN1c2ccccc2C=Cc2ccccc21
The melting point of the first is higher: 130 to 133 °C for the first, 108 to 109 °C for the second.

First: CCCSCc1cccc(-c2nc(=O)c3ccccc3s2)n1
Second: CC(=O)OC1CSC(Oc2cncc(S(=O)(=O)c3ccccc3)c2)C(OC(C)=O)C1OC(C)=O (stereo not drawn)
The melting point of the first is higher: 112 to 113 °C for the first, 97 to 99 °C for the second.

For `CNC(=S)NCCS(=O)Cc1cncn1C` (stereo not drawn), the melting point was 139 to 140 °C.
